Experimental data as given in ChEMBL document CHEMBL5726782, “N-pyrrolidinyl,N′-pyrazolyl-urea, thiourea, guanidine and cyanoguanidine compounds as TrkA kinase inhibitors” (2018).

Target: High affinity nerve growth factor receptor (Homo sapiens, UniProt P04629)
Assay: Kinase Binding Assay: TrkA binding activity was determined in a TrkA LanthaScreen™ Eu Kinase Binding Assay. 5 nM His-tagged recombinant human TrkA (6HIS tagged cytoplasmic domain from Invitrogen, Catalog No. PV3144) was incubated with 4 nM Alexa-Fluor® Tracer 236 (Invitrogen Cat. No. PV5592), 2 nM biotinylated anti-His (Invitrogen Cat. No. PV6090), and 2 nM europium-labeled Streptavidin (Invitrogen Cat. No. PV5899), in buffer (25 mM MOPS, pH 7.5, 5 mM MgCl2, 0.005% Triton X-100). Three fold serial dilutions of compounds of the invention in DMSO were added to a final percentage of 2% DMSO. After 60-minute incubation at 22° C., the reaction was measured using the EnVision mutlimode plate reader (PerkinElmer) via TR-FRET dual wavelength detection at […]. The percent of control was calculated using a ratiometric emission factor.

High affinity nerve growth factor receptor, sequence (P04629 whole entry, the tested form may be a part): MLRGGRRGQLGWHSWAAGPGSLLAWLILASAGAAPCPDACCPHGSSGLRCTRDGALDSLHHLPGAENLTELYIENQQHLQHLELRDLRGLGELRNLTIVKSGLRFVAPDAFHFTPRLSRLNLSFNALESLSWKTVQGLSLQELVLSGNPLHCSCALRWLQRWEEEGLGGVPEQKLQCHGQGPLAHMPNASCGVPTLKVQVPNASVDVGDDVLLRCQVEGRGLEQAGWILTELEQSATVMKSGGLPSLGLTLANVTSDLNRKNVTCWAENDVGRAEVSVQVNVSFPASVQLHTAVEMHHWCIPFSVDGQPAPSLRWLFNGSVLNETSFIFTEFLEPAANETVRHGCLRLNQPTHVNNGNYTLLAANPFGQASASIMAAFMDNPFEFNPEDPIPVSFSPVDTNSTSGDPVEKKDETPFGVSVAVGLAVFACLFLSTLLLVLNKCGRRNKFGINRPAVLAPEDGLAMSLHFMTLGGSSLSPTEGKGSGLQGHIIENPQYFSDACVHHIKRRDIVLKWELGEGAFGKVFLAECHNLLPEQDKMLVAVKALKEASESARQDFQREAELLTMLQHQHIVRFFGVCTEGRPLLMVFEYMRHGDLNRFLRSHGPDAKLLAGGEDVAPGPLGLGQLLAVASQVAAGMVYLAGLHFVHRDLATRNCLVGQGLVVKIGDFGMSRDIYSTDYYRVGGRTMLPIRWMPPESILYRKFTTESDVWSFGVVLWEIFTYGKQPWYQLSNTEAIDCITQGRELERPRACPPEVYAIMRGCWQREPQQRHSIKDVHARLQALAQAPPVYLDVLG

Q: How did the IC50 turn out when `COCCN1C[C@@H](NC(=O)Nc2c(C)c(-c3cncc(OC)c3)nn2-c2ccccc2)[C@H](c2ccc(F)c(F)c2)C1` was run?
A: The IC50 was under 100 nM.
